Experimental data: patent US4201784A, “Substituted 2-[2'-(5"-nitrofuryl-2")vinyl-and 4'-(5"-nitrofuryl-2"-1,3-butadieryl]quinoline-4-carboxylic acid amides and salts thereof” (Institut Organicheskogo Sinteza Akademii Nauk Latviiskoi SSR, priority 1977, dated 1980)
Where two headings read alike, the source gives them in different places.

Columns and labels:
[1] = Biological availability, ascites of mice with Ehrlich ascitic carcinoma; format: in vivo
Description: (§1) The biological availability of giniquine was studied on common white male rats with a mass of 150-200 g and common white male mice with a mass of 25-30 g. The test began seven days after Ehrlich ascitic carcinoma was inoculated to the animals.
(§2) Giniquine was injected intraperitoneally in 100 mg/kg doses, using distilled water as a solvent. The animals were slaughtered at preset time intervals (5,15,30 and 60 minutes) and a biological material (blood and liver for rats and ascites for mice) was taken for analysis. To separate ascitic fluid from the tumor cells, ascites was centrifuged at 2000 r.p.m. for 10 minutes. The precipitate was washed with a mixture of physiological solution and heparin and was again centrifuged under the same conditions, 20% homogenates in distilled water were prepared from ascitic cells.
(§3) Giniquine was extracted from the biological material with chloroform.
(§4) The extraction procedure comprised the following stages: 0.1 ml of ethyl alcohol were added to 1 ml of tested sample and the solution was thoroughly mixed with 0.5 ml of a saturated potassium carbonate solution, then 4 ml of chloroform was added. Closed test tubes were vigorously shaken on a rocker for one hour. After the shaking, the samples were centrifuged at 5000 r.p.m. for ten minutes. The chloroform layer was used for analysis. Daylight was avoided.
(§5) Concentration of the preparation in biological samples was determined by spectrophotometry at 400 nm using molar absorption factor (ε0.10^-3 =36.04).
(§6) The results were expressed in μg/ml of sample. Minimum sensitivity of the method was 1.1 μg/ml.

LD50, intact mice = conditions: mouse, in vivo, ip, intraperitoneal
Spleen = experiment: In vivo biosynthesis of DNA, RNA and protein in spleen; set-up: species or system mice; conditions: for Incorporation of 2-^14 C-leucine in protein / Incorporation of 2-^14 C-thymidine in DNA: intraperitoneal 100 mg/kg
Description: (§7) The influence of giniquine on biosynthetic processes in the in vivo tests was studied on common white mice of a mass of 25-35 g with Ehrlich ascitic tumor.
(§8) The mice were divided into two groups. The animals in the first group were given a single injection of the preparation in differing doses, and the animals in the second group were treated with distilled water. Three series of experiments were conducted. In the first series of tests (16 mice) the preparation was injected in a dose of 100 mg/kg ([…] dose), and the animals were decapitated one hour after the injection; in the second test series (16 mice) the animals were slaughtered 3 hours after the injection with other conditions being the same. In the third test series (35 mice) the influence of giniquine on plastic metabolism in tumor cells and normal tissues was studied 24 hours after the injection of a 0.33% solution of the preparation in a dose of 28 mg/kg (therapeutical dose).
(§9) Labeled precursors of nucleic acids and protein were injected intraperitoneally one hour before the slaughter of the animals (50 μc/100 g). Ascitic fluid, as well as liver and spleen, mucous membrane of small intestine, brain, kidneys and lungs were taken for analysis. 10% suspension was prepared from tumor cells, and 10% homogenates were prepared from tissues in a physiological solution.
(§10) Tumor cells and tissue homogenates for precipitation of nucleic acids were treated with 57% perchloric acid (10:1). Acid-soluble fraction was removed by washing the precipitate twice with 5 ml of 5% perchloic acid with subsequent centrifuging at 2000 g. Nucleic acids were hydrolyzed by the Schneider method. Radioactivity of DNA and RNA fractions was measured by means of a liquid scintillation counter. The quantity of DNA and RNA was determined by spectrophotometry: the quantity of DNA was determined with diphenylamine, and RNA- with orcin.
(§11) To prepare protein hydrolysate, the suspension of tumoral cells and homogenates of normal tissues were treated with cool 10% trichloracetic acid (1:4), with subsequent centrifuging at 2000 g for ten minutes. The precipitate was washed twice with 5 ml of 10% trichloracetic acid. Lipoids were removed by a consecutive treatment of the precipitate with ethanol, saturated solution of sodium acetate, a mixture of ethanol and ether (3:1) and ether. To prepare protein hyhdrolysate, 4 ml of 0.3N KOH were added to the precipitate, and the mixture was placed into a thermostatic chamber at 37° C. for 60 minutes. The radioactivity was measured by means of a liquid scintillation counter. Protein was quantitatively determined by spectrophotometry using a microbiuret reaction.

Ehrlich ascitic tumor = experiment: Influence of fluorafur on antitumor activity of giniquine, Ehrlich ascitic tumor; format: in vivo, mice
Description: In some experiments the influence of the known preparation fluorofur on the antitumoral activity of giniquine was studied. […] The tests were made on Ehrlich ascitic tumor. The preparations were injected 1,2,3,4 and 7 days after the implantation of tumor. Giniquine was injected intraperitoneally and fluorafur-subcutaneously.
giniquine was injected intraperitoneally, and fluorafursubcutaneously.

melanoma B16 = experiment: Antitumor activity, melanoma B16; format: in vivo, mice
Description: Apart from the tests on Ehrlich ascitic tumor, giniquine was studied on twelve more inoculated tumors. Seven tumors (melanoma B16, sarcoma AK, large intestine carcinoma acatol-1, sarcoma 180, adenocarcinoma 755, Lewis lung carcinoma and sarcoma 37) were inoculated subcutaneously with 50 mg of tumoral cells per mouse. Four tumors (lymphatic leukemies L 5178, L 5178Y, L 1210 and P-388) were inoculated intraperitoneally with 10^6 cells per mouse. One tumor (La, hemocytoblastosis) was inoculated intraperitoneally by injecting 50 mg of cell suspension of spleen and liver of mice suffering La hemocytoblastosis, per mouse. […] The rate of deceleration of the tumor growth was established 14 days after the ultimate injection of giniquine; life of test animals was recorded for 60 days.

[2] = Biological availability, blood and liver of rats; format: in vivo; conditions: intraperitoneal 100 mg/kg
Description: as §1, §2, §3, §4, §5, §6

Liver = experiment: In vivo biosynthesis of DNA, RNA and protein in liver; set-up: species or system mice; conditions: for Incorporation of 2-^14 C-leucine in protein / Incorporation of 2-^14 C-thymidine in DNA: intraperitoneal 100 mg/kg; for inhibition at 100 mg/kg: Mus musculus, three hours
Description: as §7, §8, §9, §10, §11

[3] = 24 hours, intraperitoneal 28 mg/kg
[4] = BDF1 male mice, intraperitoneal, days 1,2,5,6,7, optim. daily dose 17.0 mg/kg

CCN(CC)CCCC(C)NC(=O)c1cc(C=Cc2ccc([N+](=O)[O-])o2)nc2ccccc12 (stereo not drawn) [giniquine, 2-[2'-(5"-nitrofuryl-2")vinyl]quinoline-4-carboxylic acid (α-methyl-δ-diethylaminobutyl)amide triphosphate]
concentration in tumoral cells versus ascitic fluid (in words) ([1]; 60 minutes): also greater than that in ascitic fluid
time of maximum concentration in ascitic cells ([1]; intraperitoneal 100 mg/kg): five minutes
concentration in ascitic cells versus ascitic fluid ([1]; intraperitoneal 100 mg/kg, five minutes): four times greater
accumulation (in words) ([1]; intraperitoneal injection): mainly accumulates in ascitic cells
Cmax at 5 min ([1]; mouse, ascitic cells, ip, intraperitoneal 100 mg/kg, five minutes, read-out: maximum concentration in ascitic cells): 40000 ng/mL
concentration at 5 min ([1]; mouse, ascitic fluid, ip, intraperitoneal 100 mg/kg, five minutes): 10000 ng/mL
LD50 (LD50, intact mice; single injection, female): 33 mg/kg
LD50 (LD50, intact mice; single injection, male): 30 mg/kg
LD50 (LD50, intact mice; ten injections, female): 8 mg/kg
LD50 (LD50, intact mice; ten injections, male): 7.3 mg/kg
Incorporation of 2-^14 C-leucine in protein (Spleen; 1 h): 97.0 % of control
Incorporation of 2-^14 C-thymidine in DNA (Spleen; 1 h): 120.0 % of control
Incorporation of 2-^14 C-leucine in protein (Spleen; 3 h): 40.0 % of control
Incorporation of 2-^14 C-thymidine in DNA (Spleen; 3 h): 116.0 % of control
Incorporation of specific precursors, DNA (Spleen; [3]): 330.0 % of control
Incorporation of specific precursors, Protein (Spleen; [3]): 93.0 % of control
Incorporation of specific precursors, RNA (Spleen; [3]): 162.0 % of control
inhibition at 100 mg/kg (Spleen; Mus musculus, 3 h, three hours, 100 mg/kg): 60%
inhibition of biosynthesis of protein (in words) (Spleen; one hour, 100 mg/kg): not observed or inappreciable
stimulation of biosynthesis of DNA (Spleen; one hour, 100 mg/kg): 20%
stimulation of biosynthesis of DNA (Spleen; three hours, 100 mg/kg): 16%
Life prolongation (Ehrlich ascitic tumor; Test No. 1, giniquine 3.6 mg/kg daily): 55%
Life prolongation (Ehrlich ascitic tumor; Test No. 1, giniquine 6.0 mg/kg daily): 67%
Life prolongation (Ehrlich ascitic tumor; Test No. 1, giniquine 10.0 mg/kg daily): 38%
Life prolongation (Ehrlich ascitic tumor; Test No. 1, giniquine 17.0 mg/kg daily): -5%
Life prolongation (Ehrlich ascitic tumor; Test No. 2, giniquine 3.6 mg/kg daily): 45%
Life prolongation (Ehrlich ascitic tumor; Test No. 2, giniquine 6.0 mg/kg daily): 98%
Life prolongation (Ehrlich ascitic tumor; Test No. 2, giniquine 10.0 mg/kg daily): 5%
Life prolongation (Ehrlich ascitic tumor; Test No. 2, giniquine 17.0 mg/kg daily): -48%
Deceleration of tumor growth (melanoma B16; [4]): 48%
Max. prolongation of life (melanoma B16; [4]): 10%
antitumor effect (in words) (melanoma B16; melanoma B16): slight antitumor effect
time of detection in blood ([2]; blood): as early as in five minutes
Cmax at 0.5 h ([2]; rat, blood, ip, 30 minutes, read-out: maximum level in blood): 23000 ng/mL
Tmax ([2]; rat, ip, blood, read-out: time of maximum level in blood (converted)): 30 min
Cmax ([2]; rat, ip, liver, read-out: maximum concentration in liver): 28000 ng/mL
Tmax ([2]; rat, ip, liver, read-out: time of maximum concentration in liver (converted)): 20 min
concentration at 1 h ([2]; rat, serum, ip, 60 minutes, read-out: content in blood serum): 3000 ng/mL
Incorporation of 2-^14 C-leucine in protein (Liver; 1 h): 127.0 % of control
Incorporation of 2-^14 C-thymidine in DNA (Liver; 1 h): 106.0 % of control
Incorporation of 2-^14 C-leucine in protein (Liver; 3 h): 96.0 % of control
Incorporation of 2-^14 C-thymidine in DNA (Liver; 3 h): 93.0 % of control
Incorporation of specific precursors, DNA (Liver; [3]): 190.0 % of control
Incorporation of specific precursors, Protein (Liver; [3]): 112.0 % of control
Incorporation of specific precursors, RNA (Liver; [3]): 124.0 % of control
inhibition at 100 mg/kg (Liver; 3 h, 100 mg/kg, read-out: inhibition of biosynthesis of DNA): 7%
inhibition at 100 mg/kg (Liver; 3 h, 100 mg/kg, read-out: inhibition of biosynthesis of protein): 4%
inhibition of biosynthesis of protein (in words) (Liver; one hour, 100 mg/kg): not observed or inappreciable
stimulation of biosynthesis of DNA (Liver; one hour, 100 mg/kg): 6%
